Measured values reported in US11969428B2, “Methods and pharmaceutical compositions for treating lymphoid malignancy” (priority 2011, dated 2024).

Experiments:
Assay in all cases: Ambit KinomeScan screening
Format in all cases: binding
Details in all cases: CAL-130 10 μM
TIE2 = molecular target: T1, TIE2 (Homo sapiens, UniProt Q02763)
T1 construct: unspecified tag (tagged kinase); purchased Ambit (KinomeScan screening)
Procedure, shortened: (§1)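 Tagged kinases are exposed to an immobilized bait ligand with CAL-130 (10 μM) present. Kinase binding to the bait is then quantified relative to control. Results are given as % of control, where over 35% is scored as no hit.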

KIT(D816V) = molecular target: T2, KIT(D816V) (Homo sapiens, UniProt P10721, D816V)
T2 construct: purchased Ambit (KinomeScan screening)
Procedure, shortened: as §1

PIK3CG = molecular target: T3, PIK3CG (Homo sapiens, UniProt P48736)
T3 construct: unspecified tag; purchased Ambit (KinomeScan screening panel)
T3 sequence (P48736 whole entry): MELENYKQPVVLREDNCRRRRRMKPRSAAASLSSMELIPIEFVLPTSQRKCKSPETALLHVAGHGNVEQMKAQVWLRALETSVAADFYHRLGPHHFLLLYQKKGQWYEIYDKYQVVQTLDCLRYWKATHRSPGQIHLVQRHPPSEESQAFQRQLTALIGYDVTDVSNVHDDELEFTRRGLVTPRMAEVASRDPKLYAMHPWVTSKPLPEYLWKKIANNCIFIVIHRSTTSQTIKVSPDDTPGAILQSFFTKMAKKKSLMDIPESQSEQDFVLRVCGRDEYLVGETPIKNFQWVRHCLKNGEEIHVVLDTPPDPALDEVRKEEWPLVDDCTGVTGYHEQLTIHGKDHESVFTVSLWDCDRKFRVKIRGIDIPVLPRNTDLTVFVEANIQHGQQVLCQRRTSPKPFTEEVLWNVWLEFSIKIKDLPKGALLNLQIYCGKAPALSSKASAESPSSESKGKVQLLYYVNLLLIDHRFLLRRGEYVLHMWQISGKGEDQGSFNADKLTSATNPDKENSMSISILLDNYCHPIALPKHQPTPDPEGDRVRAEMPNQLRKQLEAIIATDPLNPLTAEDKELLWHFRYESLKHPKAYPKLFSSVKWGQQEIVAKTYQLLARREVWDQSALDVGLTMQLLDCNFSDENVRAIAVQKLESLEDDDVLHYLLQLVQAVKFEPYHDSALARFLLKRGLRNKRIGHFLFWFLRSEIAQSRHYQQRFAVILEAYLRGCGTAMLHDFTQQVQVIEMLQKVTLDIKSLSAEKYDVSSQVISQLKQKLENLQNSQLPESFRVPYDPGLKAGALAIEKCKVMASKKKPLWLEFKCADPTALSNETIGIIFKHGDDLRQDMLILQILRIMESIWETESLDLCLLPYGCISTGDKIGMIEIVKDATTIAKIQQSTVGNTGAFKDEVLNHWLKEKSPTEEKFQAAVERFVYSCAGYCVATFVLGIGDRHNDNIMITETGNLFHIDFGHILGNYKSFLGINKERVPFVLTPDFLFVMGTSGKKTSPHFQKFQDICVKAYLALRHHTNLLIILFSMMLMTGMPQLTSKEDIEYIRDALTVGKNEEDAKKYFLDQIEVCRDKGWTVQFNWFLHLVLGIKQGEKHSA
Procedure, shortened: as §1

BRAF = molecular target: T4, BRAF (Homo sapiens, UniProt P15056)
T4 construct: unspecified tag ("tagged kinases"); purchased Ambit (KinomeScan screening)
Procedure, shortened: as §1

CSNK1G1 = molecular target: T5, CSNK1G1 (Homo sapiens, UniProt Q9HCP0)
T5 construct: purchased Ambit (KinomeScan screening service)
Procedure, shortened: as §1

RIOK2 = molecular target: T6, RIOK2 (Homo sapiens, UniProt Q9BVS4)
T6 construct: unspecified tag (tagged kinase); purchased Ambit (KinomeScan screening)
Procedure, shortened: as §1

ACVRL1 = molecular target: T7, ACVRL1 (Homo sapiens, UniProt P37023)
T7 construct: purchased Ambit (KinomeScan screening)
Procedure, shortened: as §1

p38-β = molecular target: T8, p38-β (Homo sapiens, UniProt Q15759)
T8 construct: purchased Ambit (KinomeScan screening service)
Procedure, shortened: as §1

PKN1 = molecular target: T9, PKN1 (Homo sapiens, UniProt Q16512)
T9 construct: purchased Ambit (KinomeScan screening service)
Procedure, shortened: as §1

AURKA = molecular target: T10, AURKA (Homo sapiens, UniProt O14965)
T10 construct: purchased Ambit (KinomeScan screening service)
Procedure, shortened: as §1

PLK1 = molecular target: T11, PLK1 (Homo sapiens, UniProt P53350)
T11 construct: purchased Ambit (KinomeScan screening service)
Procedure, shortened: as §1

HUNK = molecular target: T12, HUNK (Homo sapiens, UniProt P57058)
T12 construct: Ambit (KinomeScan screening)
Procedure, shortened: as §1

TYK2(JH2domain) = molecular target: T13, TYK2(JH2domain) (Homo sapiens, UniProt P29597)
T13 construct: TYK2(JH2domain); tag, kind not specified; purchased Ambit (KinomeScan screening service)
Procedure, shortened: as §1

ERK3 = molecular target: T14, ERK3 (Homo sapiens, UniProt Q16659)
T14 construct: unspecified tag ("tagged kinases"); purchased Ambit (KinomeScan screening service)
T14 sequence (Q16659 whole entry): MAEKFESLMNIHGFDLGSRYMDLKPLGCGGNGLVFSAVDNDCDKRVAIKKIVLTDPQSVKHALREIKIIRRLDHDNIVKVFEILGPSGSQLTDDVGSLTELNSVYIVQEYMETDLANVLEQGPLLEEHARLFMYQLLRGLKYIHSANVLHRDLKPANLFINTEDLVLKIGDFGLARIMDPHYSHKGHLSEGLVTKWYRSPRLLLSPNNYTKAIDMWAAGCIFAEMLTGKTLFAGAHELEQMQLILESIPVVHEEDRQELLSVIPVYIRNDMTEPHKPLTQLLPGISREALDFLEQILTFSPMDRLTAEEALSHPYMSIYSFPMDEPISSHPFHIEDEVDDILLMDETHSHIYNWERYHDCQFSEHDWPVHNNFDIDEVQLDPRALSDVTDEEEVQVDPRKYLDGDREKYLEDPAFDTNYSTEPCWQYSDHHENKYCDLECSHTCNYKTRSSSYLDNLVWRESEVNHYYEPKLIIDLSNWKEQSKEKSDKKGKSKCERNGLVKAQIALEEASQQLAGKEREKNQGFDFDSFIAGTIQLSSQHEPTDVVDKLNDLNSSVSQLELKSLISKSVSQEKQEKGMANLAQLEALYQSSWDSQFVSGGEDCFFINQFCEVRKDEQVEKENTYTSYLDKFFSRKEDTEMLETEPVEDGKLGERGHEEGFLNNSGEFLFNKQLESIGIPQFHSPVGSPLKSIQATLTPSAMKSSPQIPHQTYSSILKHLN
Procedure, shortened: as §1

ABL1(Y253F) = molecular target: T15, ABL1(Y253F) (Homo sapiens, UniProt P00519, Y253F)
T15 construct: unspecified tag ("tagged kinases"); purchased Ambit (KinomeScan screening)
Procedure, shortened: as §1

NEK6 = molecular target: T16, NEK6 (Homo sapiens, UniProt Q9HC98)
T16 construct: unspecified tag; purchased Ambit (KinomeScan screening panel)
Procedure, shortened: as §1

EPHB3 = molecular target: T17, EPHB3 (Homo sapiens, UniProt P54753)
T17 construct: purchased Ambit (KinomeScan screening service)
Procedure, shortened: as §1

AXL = molecular target: T18, AXL (Homo sapiens, UniProt P30530)
T18 construct: purchased Ambit (KinomeScan screening service)
T18 sequence (P30530 26-894): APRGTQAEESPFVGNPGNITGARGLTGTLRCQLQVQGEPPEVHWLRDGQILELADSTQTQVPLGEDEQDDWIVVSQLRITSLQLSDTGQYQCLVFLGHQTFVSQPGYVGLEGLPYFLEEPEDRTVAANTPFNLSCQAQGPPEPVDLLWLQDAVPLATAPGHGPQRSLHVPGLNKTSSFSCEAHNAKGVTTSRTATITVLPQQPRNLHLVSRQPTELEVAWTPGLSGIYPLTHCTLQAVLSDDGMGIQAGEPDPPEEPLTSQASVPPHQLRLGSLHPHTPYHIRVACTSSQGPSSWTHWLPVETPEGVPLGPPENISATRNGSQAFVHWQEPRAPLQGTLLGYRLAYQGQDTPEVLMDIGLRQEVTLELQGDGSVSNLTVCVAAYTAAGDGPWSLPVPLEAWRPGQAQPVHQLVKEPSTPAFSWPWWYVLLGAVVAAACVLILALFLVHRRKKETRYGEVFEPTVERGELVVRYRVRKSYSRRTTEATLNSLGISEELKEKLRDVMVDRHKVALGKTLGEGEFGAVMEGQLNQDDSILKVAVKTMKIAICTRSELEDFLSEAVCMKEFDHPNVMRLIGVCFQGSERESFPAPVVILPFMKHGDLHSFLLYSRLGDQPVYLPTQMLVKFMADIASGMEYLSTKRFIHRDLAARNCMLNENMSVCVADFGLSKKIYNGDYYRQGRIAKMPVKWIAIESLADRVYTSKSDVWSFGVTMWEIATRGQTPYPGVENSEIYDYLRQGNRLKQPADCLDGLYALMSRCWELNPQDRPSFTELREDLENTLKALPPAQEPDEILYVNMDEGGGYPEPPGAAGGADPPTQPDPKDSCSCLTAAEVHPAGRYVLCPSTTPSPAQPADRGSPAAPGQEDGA
Procedure, shortened: as §1

CLK4 = molecular target: T19, CLK4 (Homo sapiens, UniProt Q9HAZ1)
T19 construct: purchased Ambit (KinomeScan screening service)
Procedure, shortened: as §1

PIK3CA = molecular target: T20, PIK3CA (Homo sapiens, UniProt P42336)
T20 construct: unspecified tag; purchased Ambit (KinomeScan screening panel)
T20 sequence (P42336 whole entry): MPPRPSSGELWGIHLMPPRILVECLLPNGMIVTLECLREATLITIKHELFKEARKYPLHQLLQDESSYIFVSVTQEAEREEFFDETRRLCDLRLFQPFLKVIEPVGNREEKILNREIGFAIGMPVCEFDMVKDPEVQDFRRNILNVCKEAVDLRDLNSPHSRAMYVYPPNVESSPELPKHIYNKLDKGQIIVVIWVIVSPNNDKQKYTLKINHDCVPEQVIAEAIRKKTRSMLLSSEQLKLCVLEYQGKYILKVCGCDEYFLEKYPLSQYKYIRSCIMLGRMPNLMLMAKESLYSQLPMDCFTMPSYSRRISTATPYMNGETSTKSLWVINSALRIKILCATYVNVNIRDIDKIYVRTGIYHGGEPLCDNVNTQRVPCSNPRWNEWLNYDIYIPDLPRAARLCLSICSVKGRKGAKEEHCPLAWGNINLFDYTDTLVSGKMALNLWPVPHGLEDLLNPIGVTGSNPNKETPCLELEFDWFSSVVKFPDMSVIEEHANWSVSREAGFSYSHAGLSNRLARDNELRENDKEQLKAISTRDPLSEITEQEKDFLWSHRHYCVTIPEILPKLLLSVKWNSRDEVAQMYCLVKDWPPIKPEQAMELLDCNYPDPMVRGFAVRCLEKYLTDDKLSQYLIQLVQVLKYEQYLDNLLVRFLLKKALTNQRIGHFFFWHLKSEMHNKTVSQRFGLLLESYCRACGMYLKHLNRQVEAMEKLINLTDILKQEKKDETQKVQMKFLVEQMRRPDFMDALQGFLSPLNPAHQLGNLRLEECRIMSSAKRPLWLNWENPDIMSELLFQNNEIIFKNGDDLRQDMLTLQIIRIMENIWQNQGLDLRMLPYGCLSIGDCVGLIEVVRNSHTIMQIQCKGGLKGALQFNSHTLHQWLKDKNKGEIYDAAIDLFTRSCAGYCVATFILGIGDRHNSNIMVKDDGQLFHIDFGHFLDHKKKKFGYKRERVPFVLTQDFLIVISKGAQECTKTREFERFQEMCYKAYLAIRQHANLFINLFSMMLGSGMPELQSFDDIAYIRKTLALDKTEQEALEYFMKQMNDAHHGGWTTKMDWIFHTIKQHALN
Procedure, shortened: as §1

LKB1 = molecular target: T21, LKB1 (Homo sapiens, UniProt Q15831)
T21 construct: unspecified tag ('tagged kinases'); purchased Ambit (KinomeScan screening service)
Procedure, shortened: as §1

PRKCD = molecular target: T22, PRKCD (Homo sapiens, UniProt Q05655)
T22 construct: purchased Ambit (KinomeScan screening service)
Procedure, shortened: as §1

MST3 = molecular target: T23, MST3 (Homo sapiens, UniProt Q9Y6E0)
T23 construct: unspecified tag; purchased Ambit (KinomeScan screening panel)
Procedure, shortened: as §1

MET(M1250T) = molecular target: T24, MET(M1250T) (Homo sapiens, UniProt P08581, M1250T)
T24 construct: purchased Ambit (KinomeScan screening)
Procedure, shortened: as §1

ERBB4 = molecular target: T25, ERBB4 (Homo sapiens, UniProt Q15303)
T25 construct: unspecified tag ("tagged kinases"); purchased Ambit (KinomeScan screening service)
T25 sequence (Q15303 26-1308): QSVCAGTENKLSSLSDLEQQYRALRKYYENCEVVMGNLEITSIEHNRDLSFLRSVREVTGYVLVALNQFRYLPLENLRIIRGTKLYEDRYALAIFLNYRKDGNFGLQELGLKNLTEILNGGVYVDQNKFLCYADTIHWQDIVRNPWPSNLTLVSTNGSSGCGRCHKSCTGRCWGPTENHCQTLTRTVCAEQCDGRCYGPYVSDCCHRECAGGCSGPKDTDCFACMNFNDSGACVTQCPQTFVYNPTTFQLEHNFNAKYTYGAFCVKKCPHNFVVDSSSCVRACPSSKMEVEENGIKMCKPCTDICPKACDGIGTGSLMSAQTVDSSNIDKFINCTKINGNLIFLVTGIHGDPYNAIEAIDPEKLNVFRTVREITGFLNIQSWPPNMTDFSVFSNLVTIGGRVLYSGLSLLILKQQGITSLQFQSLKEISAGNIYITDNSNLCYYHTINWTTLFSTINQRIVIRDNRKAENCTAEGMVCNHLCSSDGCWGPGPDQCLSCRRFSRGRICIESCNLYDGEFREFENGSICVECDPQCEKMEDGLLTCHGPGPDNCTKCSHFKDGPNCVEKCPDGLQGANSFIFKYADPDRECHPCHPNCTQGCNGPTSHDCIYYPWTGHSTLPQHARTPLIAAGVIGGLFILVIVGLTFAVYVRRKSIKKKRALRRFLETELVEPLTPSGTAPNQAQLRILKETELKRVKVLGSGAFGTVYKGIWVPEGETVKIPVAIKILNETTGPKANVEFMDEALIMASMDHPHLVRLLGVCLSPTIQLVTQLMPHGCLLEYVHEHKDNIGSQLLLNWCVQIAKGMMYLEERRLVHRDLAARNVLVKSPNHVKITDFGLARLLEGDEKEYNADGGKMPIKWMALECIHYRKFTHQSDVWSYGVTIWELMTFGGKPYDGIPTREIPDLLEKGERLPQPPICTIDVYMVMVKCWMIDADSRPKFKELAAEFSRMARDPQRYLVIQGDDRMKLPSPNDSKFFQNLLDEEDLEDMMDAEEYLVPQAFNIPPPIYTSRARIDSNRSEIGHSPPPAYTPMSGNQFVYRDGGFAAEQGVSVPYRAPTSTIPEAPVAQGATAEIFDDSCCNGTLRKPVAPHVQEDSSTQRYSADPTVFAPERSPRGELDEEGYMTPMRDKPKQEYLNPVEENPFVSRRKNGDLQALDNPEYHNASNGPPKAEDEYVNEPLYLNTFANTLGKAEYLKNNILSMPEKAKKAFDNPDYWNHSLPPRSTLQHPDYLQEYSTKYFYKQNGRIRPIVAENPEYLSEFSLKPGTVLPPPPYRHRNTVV
Procedure, shortened: as §1

BMPR2 = molecular target: T26, BMPR2 (Homo sapiens, UniProt Q13873)
T26 construct: unspecified tag ("tagged kinases"); purchased Ambit (KinomeScan screening)
Procedure, shortened: as §1

MLCK = molecular target: T27, MLCK (Homo sapiens, UniProt Q32MK0)
T27 construct: unspecified tag ('tagged kinases'); purchased Ambit (KinomeScan screening)
Procedure, shortened: as §1

PIM2 = molecular target: T28, PIM2 (Homo sapiens, UniProt Q9P1W9)
T28 construct: unspecified tag; purchased Ambit (KinomeScan screening panel)
Procedure, shortened: as §1

BMX = molecular target: T29, BMX (Homo sapiens, UniProt P51813)
T29 construct: unspecified tag ("tagged kinases"); purchased Ambit (KinomeScan screening)
Procedure, shortened: as §1

FGFR3 = molecular target: T30, FGFR3 (Homo sapiens, UniProt P22607)
T30 construct: unspecified tag; purchased Ambit (KinomeScan screening service)
Procedure, shortened: as §1

FGFR1 = molecular target: T31, FGFR1 (Homo sapiens, UniProt P11362)
T31 construct: unspecified tag; purchased Ambit (KinomeScan screening service)
Procedure, shortened: as §1

STK36 = molecular target: T32, STK36 (Homo sapiens, UniProt Q9NRP7)
T32 construct: tag (kind not specified); purchased Ambit (KinomeScan screening service)
Procedure, shortened: as §1

RET(V804M) = molecular target: T33, RET(V804M) (Homo sapiens, UniProt P07949, V804M)
T33 construct: tag (kind not specified); purchased Ambit (KinomeScan screening service)
Procedure, shortened: as §1

RPS6KA5 = molecular target: T34, RPS6KA5 (Homo sapiens, UniProt O75582)
T34 construct: tag, kind not specified; purchased Ambit (KinomeScan screening service)
Procedure, shortened: as §1

Measured: Percent of Control Binding

Cc1ccccc1-n1c(C(C)Nc2nc(N)nc3nc[nH]c23)nc2cccc(C)c2c1=O (stereo not drawn) [CAL-130]
100%: TIE2 | KIT(D816V) | BRAF | CSNK1G1 | RIOK2 | ACVRL1 | p38-β | PKN1 | AURKA | PLK1 | HUNK | TYK2(JH2domain) | ERK3 | ABL1(Y253F) | NEK6 | EPHB3 | AXL | CLK4 | LKB1 | PRKCD | MST3 | MET(M1250T) | ERBB4 | BMPR2 | MLCK | PIM2 | BMX | FGFR3 | FGFR1 | STK36 | RET(V804M) | RPS6KA5
12%: PIK3CA; PI3KCA (Table 2) | PIK3CA; PIK3CA (Table 1)
1.2%: PIK3CG; PI3KCG (Table 2)
10%: PIK3CG; PIK3CG / PI3Kγ (Table 1)
